Values after ≈ are worked out from the molar mass of the structure shown. Read-outs that look alike come from different tables or passages of the source.
How the values were obtained:
S. aureus strain UAMS-1 = test: Fractional Inhibitory Concentration testing with mupirocin; format: cell-based; conditions: combined with mupirocin, S. aureus UAMS-1, Mueller Hinton broth, 18 hours; synergistic FIC≤0.5
Method: The RNase P inhibitors described herein were tested for Fractional Inhibitory Concentration (FIC) in the presence of mupirocin. FIC testing was performed to determine the combined effects of mupirocin and the RnpA inhibitors as described herein. Individual wells of a 96-well microtiter plate were inoculated with 1×10^5 CFU of S. aureus strain UAMS-1 in a Mueller Hinton broth. Each row of the plate contained increasing concentrations of RNPA1000 or RNPA2000 (two-fold increments; 0, 0.004, 0.008, 0.016, 0.03, 0.06, 0.125, 0.25, 0.5, 1, 2, or 4×MIC), whereas each column contained increasing concentrations of the indicated antibiotic (two-fold increments; 0, 0.06, 0.125, 0.25, 0.5, 1, 2, or 4×MIC). Plates were incubated for 18 hours at 37° C., and growth was detected by the unaided eye. The FIC was determined using the following formula: (MIC of Drug A in Combination/MIC of Drug A Alone)+(MIC of Drug B in Combination/MIC of Drug B Alone)=FIC. A synergistic interaction was defined as an FIC value≤0.5, no interaction as an FIC of 0.5-4, or an antagonistic interaction FIC>4.

RnpA = molecular target: T1, RnpA (Staphylococcus aureus, UniProt P0A0H5); test: RnpA mRNA degradation activity assay; format: biochemical
T1 sequence (P0A0H5 1-117): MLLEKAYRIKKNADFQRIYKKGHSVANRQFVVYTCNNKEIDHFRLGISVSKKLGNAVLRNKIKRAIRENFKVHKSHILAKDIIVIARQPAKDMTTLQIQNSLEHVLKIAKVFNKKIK
Method: The RNase P inhibitors described herein were tested for activity toward RnpA mRNA degradation activity. Either 1 μg of total S. aureus RNA or 1 pmol of in vitro synthesized spa mRNA was incubated with 20 pmol RnpA at 37° C. for 15 to 30 min in a reaction buffer (50 mM Tris-HCl pH 8.0, 2 mM NaCl, 2 mM MgCl2) in the absence or presence of the indicated compound. Reactions were stopped by adding an equal volume of 2×RNA loading dye (95% formamide, 0.025% SDS, 0.025% bromophenol blue, 0.025% xylene cyanol FF, 0.5 mM EDTA), run on a denaturing 1.0% agarose-0.66 M formaldehyde gel and stained with ethidium bromide. RNA substrates and corresponding degradation products were visualized using a FluorChem 5500 system (Alpha Innotech; San Leandro, Calif.). The inhibitory effects of the test compounds were measured using Image J densitometry software (National Institutes of Health; Bethesda, Md.) to quantify the signal intensity of the RNA band(s) in the negative control (RNA alone), positive control (RnpA+RNA+DMSO), and experimental samples (RnpA+RNA+test compound). The percent enzyme inhibition of test compounds was calculated using the following equation: Percent inhibition=[(experimental signal-positive control)/(negative control signal-positive control signal)]*100.

[1] = molecular target: T2, S. aureus RNase P (RnpA+rnpB) (Staphylococcus aureus, UniProt P0A0H5); test: RNase P activity assay (precursor tRNA processing); format: biochemical; conditions: ptRNATyr processing, gel densitometry; read-out: RNase P IC50
T2 sequence (P0A0H5 1-117): T1 sequence (P0A0H5 1-117)
Method: The RNase P inhibitors described herein were tested for activity toward RNase P. S. aureus RNase P activity assays were performed in low salt buffer (50 mM Tris-HCl pH 8.0, 5 mM MgCl2) or in high salt buffer (50 mM Tris-HCl pH 8.0, 100 mM MgCl2, 800 mM NH4Cl). For all reactions, ptRNATyr, tRNATyr, or rnpB RNA species were first denatured by heating to 95° C. for 3 minutes, and then slowly cooling the mixtures to room temperature. RNase P was reconstituted by mixing an equal molar ratio of RnpB and RnpA for 15 min at 37° C. Precursor tRNA processing reactions (20 μL) were performed by mixing 1.25 pmol RNase P (RnpA+rnpB), RnpA, or rnpB with an equal volume of 2× low salt buffer or 2× high salt buffer and 10 pmol ptRNATyr. Mixtures were incubated for 15 min at 37° C. Reactions were stopped by adding 20 μL 2×RNA loading dye (95% formamide, 0.025% SDS, 0.025% bromophenol blue, 0.025% xylene cyanol FF, 0.5 mM EDTA), and 30 μL of each sample was electrophoresed in a 7 M urea/8% polyacrylamide gel and was then stained with ethidium bromide (0.5 μg/ml). Where indicated, reactions were repeated in the presence of the indicated amount of putative RnpA inhibitors or dimethyl sulfoxide (DMSO). A FluorChem 5500 imaging system was used to visualize the RNA, and the relative abundance of the mature tRNATyr band in the positive control (RNase P+DMSO) or in samples containing test compounds was measured using Image J densitometry software (NIH). The percent RNase P activity was then calculated using the following calculation: (test compound tRNATyr signal/positive control tRNATyr signal)*100.

[2] = test system: Staphylococcus aureus strain UAMS-1; test: Antimicrobial susceptibility testing (MIC, broth microdilution); format: cell-based; conditions: S. aureus UAMS-1, Mueller Hinton broth, 37° C.
Method: The RNase P inhibitors described herein were tested for antimicrobial activity toward Staphylococcus aureus strain UAMS-1. Individual wells of a 96-well microtiter plate were inoculated with ˜1×10^5 colony-forming units (CFU) of the indicated organism, containing two-fold increasing concentrations (from 0 to 256 μg mL^−1) of the indicated antibiotic or putative RnpA inhibitor, and incubated at 37° C. for 18 hours in Mueller Hinton broth. The MIC was defined as the lowest concentration of antibiotic in which there was no visible bacterial growth in the wells. Minimum bactericidal concentration testing was performed by enumerating the bacterial cells in each of the wells containing treatments at and above the MIC.

[3] = RnpA mRNA degradation, gel densitometry, read-out: RnpA IC50
[4] = Staphylococcus aureus, UAMS1, 18 h, read-out: MIC

| Compound | IC50 (RnpA; [3]) [µM] | IC50 [1] [µM] | MIC [2, 4] [mg/L] | MIC ([2]; 18 hours) [mg/L] | FIC with Mupirocin (S. aureus strain UAMS-1) | IC50 (RnpA) [µM] |
| --- | --- | --- | --- | --- | --- | --- |
| COc1ccccc1C(=O)NNC(=O)COc1ccc(C(C)C)cc1 [MC-190032] | > 500 | 75 | > 128 |  | 0.75 |  |
| CC(C)c1ccc(OCC(=O)NNC(=S)NC(=O)c2ccc3ccccc3n2)cc1 [MC-190077] |  |  | > 128 |  | 0.53 |  |
| O=C(/C=C/c1ccccc1)NNC(=S)NC(=O)c1ccco1 [MC-190074] |  |  | 64 (≈ 203 µM) |  | 0.625 |  |
| CC(C)c1ccc(OCC(=O)NNC(=S)NC(=O)c2cccc(-c3ccccc3)n2)cc1 [MC-190081] |  |  | > 128 |  | 0.56 |  |
| CC(C)c1ccc(/C=C/C(=O)NNC(=S)NC(=O)c2ccco2)cc1 [MC-190078] |  |  | 64 (≈ 179 µM) |  | 0.625 |  |
| CCOc1ccc(OCC(=O)NNC(=S)NC(=O)c2ccco2)cc1 [MC-190071] | > 500 | > 500 | 256 (≈ 704 µM) |  | 0.375 |  |
| CC(C)c1ccc(OCC(=O)NNC(=S)NC(=O)c2ccc(Br)o2)cc1 [MC-190046] | 30 | 140 | 32 (≈ 72.7 µM) |  | 0.3125 |  |
| CC(C)c1ccc(OCC(=O)NNC(=S)NC(=O)/C=C/c2ccco2)cc1 [MC-190045] | 100 | 32 | 64 (≈ 165 µM) |  | 0.625 |  |
| CC(C)c1ccc(OCC(=O)NNC(=O)/C=C/c2cc3ccccc3o2)cc1 [MC-190048] | < 50 | < 50 | > 256 |  | 0.5625 |  |
| COc1ccccc1C(=O)NC(=S)NNC(=O)COc1ccc(C(C)C)cc1 [MC-190033] | 250 | > 500 | 128 (≈ 319 µM) |  | 0.3125 |  |
| CC(C)c1ccc(OCC(=O)NNC(=S)NC(=O)c2cc3ccccc3n2C)cc1 [MC-190056] | 240 |  | 64 (≈ 151 µM) |  | 0.49 |  |
| CCCOc1ccc(OCC(=O)NNC(=S)NC(=O)c2ccco2)cc1 [MC-190072] |  |  | 128 (≈ 339 µM) |  | 0.625 |  |
| O=C(COc1ccccc1)NNC(=S)NC(=O)c1ccco1 [MC-190079] |  |  | > 128 |  | 0.75 |  |
| CC(C)c1ccc(OCC(=O)NNC(=S)NC(=O)c2cc3cc(F)ccc3[nH]2)cc1 [MC-190062] |  |  | 64 (≈ 149 µM) |  | 0.56 |  |
| Cc1ccc(C(=O)NNC(=O)COc2ccc(C(C)C)cc2)o1 [MC-190041] | 470 | 385 | > 256 |  |  |  |
| CC(C)c1ccc(OCC(=O)NNC(=O)c2cc3ccccc3[nH]2)cc1 [MC-190051] | 45 | 2 | 128 (≈ 364 µM) |  |  |  |
| CC(C)c1ccc(OCC(=O)NNC(=S)NC(=O)c2ccncc2)cc1 [MC-190050] |  | 150 | 128 (≈ 344 µM) |  |  | > 500 |
| CC(C)c1ccc(OCC(=O)NNC(=S)NC(=O)c2ccno2)cc1 [MC-190037] |  | > 500 | 32 (≈ 88.3 µM) |  | 0.625 |  |
| O=C(NC(=S)NNC(=O)c1ccccc1O)c1ccco1 [MC-190069] | > 500 | 470 |  | 64 (≈ 210 µM) |  |  |
| Cc1ccc(C(=O)NNC(=S)NC(=O)c2ccco2)cc1 [MC-190073] |  |  |  | 64 (≈ 211 µM) | 0.75 |  |
| CC(C)c1ccc(OCC(=O)NNC(=O)c2ccsc2)cc1 [MC-190036] | > 500 | > 500 | > 256 |  |  |  |

Now from value to compound, other results behind:

| IC50 (RnpA; [3]) [µM] | IC50 [1] [µM] | MIC [2, 4] [mg/L] | MIC ([2]; 18 hours) [mg/L] | Compound | FIC with Mupirocin (S. aureus strain UAMS-1) | IC50 (RnpA) [µM] |
| --- | --- | --- | --- | --- | --- | --- |
| 45 | 65 | 32 (≈ 67.5 µM) |  | O=C(COc1ccc(-c2ccccc2)cc1)NNC(=S)NC(=O)c1ccc(Br)o1 [ST5524465] | 0.625 |  |
| > 500 | > 500 | > 128 |  | CC(Oc1ccc2ccccc2c1)C(=O)NNC(=S)NC(=O)c1ccco1 (centres unmarked) [ST5682782] | 0.25 |  |
| > 500 | 230 | 32 (≈ 74.5 µM) |  | CCOc1ccc(C(=O)NC(=S)NNC(=O)COc2cc(C)ccc2C(C)C)cc1 [ST5528173] | 1 |  |
| > 500 | > 500 | 8 (≈ 23 µM) |  | CCCOc1ccc(C(=O)NNC(=S)NC(=O)c2ccco2)cc1 [ST5684191] | 0.375 |  |
| > 500 | 200 | 8 (≈ 17.6 µM) |  | CC(C)(C)c1ccc(OCC(=O)NNC(=S)NC(=O)c2ccco2)c(Br)c1 [ST5524527] | 0.625 |  |
| > 500 | 125 | 32 (≈ 74 µM) |  | O=C(COc1ccc(Cl)cc1Br)NNC(=S)NC(=O)c1ccco1 [ST5525958] | 0.75 |  |
| > 500 | > 500 | 8 (≈ 23.9 µM) |  | CC(C)c1ccc(OCC(=O)NNC(=S)NC(=O)C2CC2)cc1 [ST5523314] | 1 |  |
| > 500 | > 500 | 16 (≈ 47.4 µM) |  | O=C(Cc1ccc(Cl)cc1)NNC(=S)NC(=O)c1ccco1 [ST5642600] |  |  |
| > 500 |  | 16 (≈ 49.8 µM) |  | Cc1cc(C)cc(OCC(=O)NNC(=S)NC(=O)C2CC2)c1 [ST5523339] | 1 |  |
|  | 350 | 8 (≈ 18.2 µM) |  | CC(C)c1ccc(OCC(=O)NNC(=S)NC(=O)c2ccco2)c(Br)c1 [ST5524693] | 0.49 |  |
| > 500 | > 500 | 32 (≈ 93.2 µM) |  | Cc1ccccc1C(=O)NNC(=S)NC(=O)COc1ccccc1 [ST5521953] |  |  |
| > 500 | 70 |  | 16 (≈ 52.7 µM) | Cc1ccc(C(=O)NNC(=S)NC(=O)c2ccco2)cc1 [ST5682777] |  |  |
| > 500 | 490 | > 128 |  | CCCCCCCC(=O)NC(=S)NNC(=O)COc1ccc(C(C)CC)cc1 (centres unmarked) [ST5528863] |  |  |
| > 500 | 200 | > 128 |  | O=C(CNC(=O)C1CCCCC1)NNC(=S)NC(=O)c1ccco1 [ST5526682] |  |  |
| 175 | 65 | 32 (≈ 81.2 µM) |  | Cc1cc(Cl)ccc1OCC(=O)NNC(=S)NC(=O)/C=C/c1ccco1 [ST5524187] |  |  |
| 80 | 90 | > 128 |  | CCCCC(=O)Nc1ccc(C(=O)NNC(=S)NC(=O)c2ccco2)cc1 [ST5526667] |  |  |
